Laboratory results: paper PMC13289212, “HIVIL: A human in vitro inflammatory liver model recapitulates immune-associated drug effects with high predictivity” (NAM journal, 2025)
Read-outs that look alike come from different tables or passages of the source.

Legend:
[1] = Cammett et al. 2009, Mendes et al. 2014, cited from earlier work
IL-6 [2] = assay: IL-6 ELISA in HIVIL (iKCs co-cultured with iHeps, LPS, 48 hr); type: cell-based, human; conditions: HIVIL
iHeps = assay: RNA-Seq of iHeps from mono-culture and HIVIL; type: cell-based, human
Excerpt: Subsequent analyses compared gene fold-changes of treated samples against their respective vehicle controls: "m" and "c" indicate mono- and co-culture, and "–" and "+" represent the absence or presence of LPS. […] However, this is only applicable for co-cultures where downstream effects can be traced back to cytokine changes, and not in monocultures where significant upstream cytokine changes are not observed.
RNA extraction was done using TRIzol and analyzed on a Tapestation 4200 to determine RNA Integrity Number (RIN). Only samples with RIN > 8 were sequenced. Illumina Stranded mRNA multiplexing was done with unique 96 dual indices, and all samples sequenced on the same lane of NovaSeq 6000 S4 flowcell. Data normalization was performed using DESeq2 v1.32.0 ([Love et al., 2014]) on the R programming language v4.1.0 ([R Core Team, 2021]; [R Team, 2021]). Gene enrichment analysis was done with fgsea v1.18 ([Korotkevich et al., 2021]) with gene sets downloaded from MSigDB and KEGG pathway visualization done via pathview v1.32 ([Kanehisa et al., 2021]; [Luo and Brouwer, 2013]). Other plots were produced using ggplot2 v3.3.5 and scatterplot3d v0.3-41 ([Ligges and Maechler, 2003]). The RNA-Seq dataset has been deposited in NCBI under accession number GSE189320.
RNA seq and analysis: After 48 hr of drug treatment, iHeps cultured in mono-culture and HIVIL were both subjected to TrypLE^TM dissociation, and subsequently sorted with magnetic separation with the CD163 Microbead kit (Miltenyi Biotec, Bergisch Gladbach, Germany) to obtain only iHeps. Flow-through was collected, pelleted down and snap-frozen in liquid nitrogen, before storage at -80°C. Lysates were sent to the Genome Research Informatics and Data Science platform (Agency for Science, Technology and Research, Singapore). RNA extraction was done using TRIzol and analyzed on a Tapestation 4200 to determine RNA Integrity Number (RIN). All sequenced samples included for further analysis had RIN > 8. Illumina Stranded mRNA multiplexing was done with unique 96 dual indices, and all samples sequenced on the same lane of NovaSeq 6000 S4 flowcell. Sequenced reads were trimmed for adaptor sequence using Trim Galore v0.6.4, then aligned to human genome build GRCh38 using STAR_2.6.1d. Aligned reads are summarized into count matrices using featureCounts v1.6.4 with the gene annotation file from GENCODE v37.
Data normalization was performed using DESeq2 v1.32.0 (Love et al. 2014) on the R programming language v4.1.0 (Core Team 2021; Team 2021). Gene enrichment analysis was done with fgsea v1.18 (Korotkevich et al. 2021) with gene sets downloaded from MSigDB and KEGG pathway visualization done via pathview v1.32 (Kanehisa et al. 2021; Luo and Brouwer 2013). Other plots were produced using ggplot2 v3.3.5 and scatterplot3d v0.3-41 (Ligges and Maechler 2003). The RNA-Seq dataset has been deposited in NCBI under accession number GSE189320.

IL-6 [3] = assay: IL-6 ELISA in HIVIL (iKCs co-cultured with iHeps, LPS, 48 hr); type: cell-based, human; conditions: HIVIL co-treated with TVX and LPS
TNFα = conditions: ref Shaw et al. 2010; Zou et al. 2009; Bekker et al. 2012; Gandhi et al. 2013; Heidari et al. 2019; cited from earlier work

N[C@@H]1[C@H]2CN(c3nc4c(cc3F)c(=O)c(C(=O)O)cn4-c3ccc(F)cc3F)C[C@@H]12 [TVX, Trovafloxacin]
Cmax ([1]; ref in each cell: Ademisoye et al. 2018, Xu et al. 2008, Agabeyoglu and Incecayir 2009, Rojanasthien et al. 2007, Reunanen et al. 1992, Li et al. 2002, Hong-mei et al. 2013, Bareggi et al. 1987, Jiang et al. 2008): 5 µM | Cmax ([1]; ref in each cell: Xu et al. 2008): 5 µM | effect on cytokine production (IL-6 [2]; high doses (>25 μM)): inhibitory effects | IL-6 induction (IL-6 [2]; low dose 3.125 μM and 6.25 μM): 1.5 fold | IC50 (IL-6 [2]; Homo sapiens, LPS, 48 hr): 16.2 µM | pro-inflammatory cytokine and chemokine mRNA expression (iHeps; LPS-treated co-cultures): significantly increased | FADD upregulation (iHeps; cTVX+, 25 µM): 1.7 fold | TNFα transcription increase (iHeps; cTVX+, 25 µM): 2.3 fold | cIAP-2 upregulation (iHeps; cTVX+, 25 µM): 3 fold | caspase 3 upregulation (iHeps; cTVX+, 25 µM): 1.8 fold | IL-8 transcription increase (iHeps; co-culture, cTVX+ vs. cVeh+, 25 µM): 3.2 fold | TNFα transcription (iHeps; mTVX+ compared to mVeh+, 25 µM): 0.9 fold | cIAP-2 upregulation (iHeps; mTVX+, 25 µM): 1.5 fold | IL-8 transcription increase (iHeps; mono-culture, mTVX+ vs. mVeh+, 25 µM): 1.3 fold | IL-6 transcription in iHeps (iHeps; regardless of culture conditions, result in words): slightly decreased | IL-6 decline after 24 h (IL-6 [3]): 57.3% | Reported in-vivo (murine) responses: TNFα (TNFα): TNFα↑
